# PMC8279013 (Toxicology letters, 2020)
# Target: T1, pregnane X receptor (PXR) (Homo sapiens, UniProt O75469)
# T1 sequence (O75469 1-434): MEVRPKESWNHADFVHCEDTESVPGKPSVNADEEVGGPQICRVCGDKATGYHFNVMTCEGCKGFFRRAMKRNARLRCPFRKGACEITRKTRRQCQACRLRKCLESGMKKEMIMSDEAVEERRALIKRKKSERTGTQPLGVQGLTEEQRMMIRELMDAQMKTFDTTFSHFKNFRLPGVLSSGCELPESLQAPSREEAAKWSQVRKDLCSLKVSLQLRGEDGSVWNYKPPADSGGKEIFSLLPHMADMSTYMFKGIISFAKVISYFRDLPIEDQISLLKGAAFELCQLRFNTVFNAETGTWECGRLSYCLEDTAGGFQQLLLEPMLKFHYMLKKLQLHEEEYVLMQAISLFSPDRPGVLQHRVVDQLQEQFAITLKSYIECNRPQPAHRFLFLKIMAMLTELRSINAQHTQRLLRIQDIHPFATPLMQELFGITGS
# Assay: PXR element luciferase reporter, RIF-stimulated, stable hPXR-HRE cells
# Assay type: cell-based
compound,measurement,value
CC(=O)N1CCN(c2ccc(OC[C@H]3CO[C@](Cn4ccnc4)(c4ccc(Cl)cc4Cl)O3)cc2)CC1 (racemic) [ketoconazole],IC50,22.4 µM
